# Measurements taken from patent publication US20230157970A1, “Targeted Therapy of Kidney Fibrosis” (Board of Regents, The University of Texas System, priority 2021, published 2023).
# Columns and labels:
# [1] = test system: CKD model; assay: Folic acid CKD model, kidney size after harvesting; type: in vivo; settings: folic acid CKD mice; 10 mg/kg, Navi oral, nanoparticles IV
# Procedure: This example was an animal study that created a CKD model by injecting 250 mg/kg folic acid intraperitonially (single injection). After 15 days the treatment started. The mice were divided in 5 groups of untreated, healthy, Fausidil, PLGA-Navitoclax, and PLGA-AT2-Navitoclax. FIG. 5: Figure: Image of the kidney after harvesting. The kidney from different treatment groups: A-Healthy control 510, B-Untreated control 520, C-Navi(10 mg/kg oral) 530, D-Fausidil(10 mg/kg IP) 540, E-PLGA-Navi(10 mg/kg IV) 550, F-PLGA-AT2-Navi(10 mg/kg IV) 560. FIGS. 6A-6B: The size of the untreated kidney shrunk by 42.46% (p-value 0.0062) than the healthy control (A). […] The weight of kidney (B) was also measured in gm and the weight 620 of the kidney treated with PLGA-AT2-Navi.
# [2] = test system: apoptosis in kidney section; assay: TUNEL assay of kidney section; type: in vivo, mice
# Procedure: This example was an animal study that created a CKD model by injecting 250 mg/kg folic acid intraperitonially (single injection). After 15 days the treatment started. The mice were divided in 5 groups of untreated, healthy, Fausidil, PLGA-Navitoclax, and PLGA-AT2-Navitoclax. FIGS. 9A-9R: Immunohistochemistry (IHC) and TUNEL assay of kidney section. IHC for alpha-SMA protein of different treatment group (A-F). The arrow pointed to the dark dot which represented the alpha-SMA protein. […] The dark dot from FIGS. 9G-9L represented the CTGF protein.
# [3] = test system: Bcl2; assay: Western blot analysis from the kidney sample, Bcl2; type: in vivo, mice; settings: 10 mg/kg, compared with other groups
# Procedure: This example was an animal study that created a CKD model by injecting 250 mg/kg folic acid intraperitonially (single injection). After 15 days the treatment started. The mice were divided in 5 groups of untreated, healthy, Fausidil, PLGA-Navitoclax, and PLGA-AT2-Navitoclax.
# FIG. 8: Western blot analysis from the kidney sample. Bcl2 expression was decreased in the sample collected from different group Healthy control, Untreated control, Navi(10 mg/kg oral), Fausidil(10 mg/kg IP), PLGA-Navi(10 mg/kg IV), PLGA-AT2-Navi(10 mg/kg IV) of mice.
smiles,measurement,setting,value
CC1(C)CCC(c2ccc(Cl)cc2)=C(CN2CCN(c3ccc(C(=O)NS(=O)(=O)c4ccc(N[C@H](CCN5CCOCC5)CSc5ccccc5)c(S(=O)(=O)C(F)(F)F)c4)cc3)CC2)C1 [Navitoclax],increase of kidney size after treatment,[1],43.95%
same,apoptosis (broken nucleus of DNA) by TUNEL,[2],apoptosis was observed
same,Bcl2 expression,[3],less expression of bcl2
